Test results published in patent US7160894B2, “Tricyclic compound” (Asahi Kasei Pharma Corporation, priority 2003, dated 2007).

system: phosphorylated myosin regulatory light chain in neutrophils; assay: Action on amount of phosphorylated myosin regulatory light chain in the cells (Test Example 1); type: cell-based; conditions: Neutrophil, 5 min; human neutrophils, reaction at 25° C. for 5 minutes; read-out: concentration at which the phosphorylation of myosin regulatory light chain is inhibited (IC50)
Protocol: A volume of 50 to 100 ml of peripheral blood collected from healthy volunteers was centrifuged by using Mono-Poly separator solution (Dainippon Pharmaceutical) to prepare a neutrophil containing fraction. The neutrophils were washed with PBS(−) and resuspended in Hanks' Balanced Salt Solution (HBSS+, Gibco) to prepare a cell suspension (8×10^6/ml). The cell suspension was diluted to 5×10^6/ml, introduced into Eppendorf tubes in a volume of 0.4 ml each, then 0.1 ml each of solutions of a test compound at various concentrations were added to the suspension and allowed to react at 25° C. for 5 minutes. After the reaction, 0.1 ml of trichloroacetic acid solution was added to each reaction, the reaction mixture was gently shaken and centrifuged at 12,000 rpm (4° C., 5 minutes), and the supernatant was removed. Subsequently, 3 μl of 1 M Tris solution was added to the residue, the mixture was further mixed with 50 μl of extraction buffer (8 M urea, 0.02% 2-mercaptoethanol, 0.002% bromophenol blue) and left stand at room temperature for 1 hour. Then, the reaction mixture was loaded on a spin column (0.45 μm, Millipore) to remove the insoluble solids and a sample buffer for SDS polyacrylamide gel electrophoresis (25 mM, Tris-HCl pH 6.8, 2.5% 2-mercaptoethanol, 2% sodium dodecylsulfate, 5% sucrose, 0.002% bromophenol blue as final concentrations) was added, and 10 μl of each sample was subjected to electrophoresis.
The gel after the electrophoresis was blotted on a nitrocellulose membrane (BioRad), blocked with 5% skim milk, and reacted successively with antibodies pLC1 (Sakurada K. et al, Am. J. Physiol., 274, C1563–C1572 (1998)), which specifically recognize the phosphorylated myosin regulatory light chain, and donkey anti-mouse IgG (Chemicon) conjugated with horseradish peroxidase. The band of the phosphorylated myosin regulatory light chain was detected on a film by using ECL Plus Kit (Amersham Pharmacia Biotech). This band was subjected to quantification using a densitometer. By using this value, the inhibitory ratio (%) for phosphorylation of the myosin regulatory light chain was calculated by using the following equation. Phosphorylation inhibition ratio (%)=1−(Band intensity of phosphorylated myosin regulatory light chain with addition of the test compound/Band intensity of phosphorylated myosin regulatory light chain without addition of the test compound)×100
Further, the phosphorylation inhibition ratio was calculated with changing the concentrations of the test compound, and a compound concentration providing an inhibition ratio of 50% was obtained as IC50.

| IC50 | SMILES |
| --- | --- |
| ≤ 40 µM | Clc1ncc2c3c(cccc13)N(C1CCNCC1)CC2 [Example 61, 6-Chloro-1-(piperidin-4-yl)-2,3-dihydro-1H-1,5-diazaphenalene] |

system: ovalbumin-induced constriction of respiratory tract; assay: Respiratory tract constriction suppressing action, intravenous administration (Test Example 3); type: in vivo, Hartley guinea pigs; conditions: ovalbumin-immunized guinea pigs, administered from cannula in hind leg vein, measured for 15 minutes
Protocol: Four-week old Hartley guinea pigs (male) were immunized by intraperitoneal administration of ovalbumin (Sigma, Grade V) in amounts of 1 mg for each animal on the day on which the experiment was started, 3 mg for each animal after 2 days, and 10 mg for each animal after 4 days. Twelve to fourteen days after the final immunization, the ovalbumin-immunized guinea pigs were anesthetized by intraperitoneal administration of about 40 mg/kg of pentobarbital (Somnopentyl), and the tracheas were taken out. Subsequently, a cannula (SP-110, Natsume) was inserted into each trachea, and one end of the cannula was connected to an artificial respirator (Model-b83, Harvard). The aeration conditions were set at 6 ml per kilogram and 60 times per 1 minute. Further, a cannula for medicament administration (JMS wing needle 23G 3/4) was inserted into a hind leg vein. Myoblock (Organon Technica) was administered in an amount of 0.5 mg/kg from the cannula inserted into the hind leg vein to stop the spontaneous breathing, and after 2 or 3 minutes, 0.3 mg/kg of ovalbumin was administered to induce constriction of respiratory tract. The increase of airway resistance value 2 minutes after the induction (measurement apparatuses: pressure transducer TR-603T, respiratory amplifier AR-601G, and recorder RTA-3100, Nihon Kohden Corp.) was confirmed to be above 80 cm H2O or higher, and then, a solution of a test medicament was administered from the cannula inserted into the hind leg vein, and the airway resistance value was continuously measured for 15 minutes after the administration to determine the effect.

| SMILES | improvement of constriction of respiratory tract (airway resistance value) |
| --- | --- |
| Cl.NCCCN1CCC(N2CCc3cncc4cccc2c34)CC1 [Example 15] | significantly improved the constriction of respiratory tract |
| Cl.c1cc2c3c(cncc3c1)CCN2C1CCNCC1 [Example 11] | significantly improved the constriction of respiratory tract |
| Cl.NCCN1CCC(N2CCc3cncc4cccc2c34)CC1 [Example 14] | significantly improved the constriction of respiratory tract |

system: ovalbumin-induced constriction of respiratory tract; assay: Respiratory tract constriction suppressing action, administration by inhalation (Test Example 3); type: in vivo, Hartley guinea pigs; conditions: ovalbumin-immunized guinea pigs, 2 ml solution by inhalation over 5 minutes
Protocol: Four-week old Hartley guinea pigs (male) were immunized by intraperitoneal administration of ovalbumin (Sigma, Grade V) in amounts of 1 mg for each animal on the day on which the experiment was started, 3 mg for each animal after 2 days, and 10 mg for each animal after 4 days. Further, the respiratory tract constriction suppression action of the test compounds was also evaluated by inhalation. Twelve to fourteen days after the final sensitization, 10 mg/kg of pyrilamine (Sigma), 5 mg/kg of indomethacin (Wako), or 0.1 mg/kg of propranolol (Sigma) was intraperitoneally administered. Then, 30 minutes after the administration, a 0.1% ovalbumin aqueous solution was inhaled by using a pressurization type nebulizer (PARI-IS2) to induce constriction of the respiratory tract. Ten minutes after the induction, 2 ml of a solution of a test compound prepared at various concentrations was filled in the aforementioned nebulizer, and administered by inhalation over 5 minutes. After the administration of pyrilamine and other drugs, airway resistance value was continuously measured to determine effectiveness.

| SMILES | improvement of constriction of respiratory tract (airway resistance value) |
| --- | --- |
| Cl.NCCCN1CCC(N2CCc3cncc4cccc2c34)CC1 [Example 15] | significantly improved the constriction of respiratory tract |
| Cl.c1cc2c3c(cncc3c1)CCN2C1CCNCC1 [Example 11] | significantly improved the constriction of respiratory tract |
| Cl.NCCN1CCC(N2CCc3cncc4cccc2c34)CC1 [Example 14] | significantly improved the constriction of respiratory tract |

system: intraocular pressure; assay: Intraocular pressure reducing action (Test Example 4); type: in vivo, Japanese white rabbit; conditions: rabbit, 50 μl of aqueous solution dropped to the left eye
Protocol: A Japanese white rabbit having a body weight of about 2 kg was placed in a positioner and naturalized for one week before the experiment. An ophthalmologic local anesthesant (Benoxil) was administered to the left eye, and then intraocular pressure was measured by using a tonometer (Classic 30, Solan). The initial value of the intraocular pressure was measured, then 50 μl of an aqueous solution of a test compound was dropped to the left eye at various concentrations, and the intraocular pressure was measured with passage of time.

| SMILES | intraocular pressure reducing action |
| --- | --- |
| CCC(=O)NCCCN1CCC(N2CCc3cnc(O)c4cccc2c34)CC1 [Example 73] | significant intraocular pressure reducing action |
| Cl.NCCCN1CCC(N2CCc3cncc4cccc2c34)CC1 [Example 15] | significant intraocular pressure reducing action |
| Cl.OCCN[C@H]1CC[C@H](N2CCc3cnc(O)c4cccc2c34)CC1 [Example 78] | significant intraocular pressure reducing action |
| Cl.OCCN1CCC(N2CCc3cnc(O)c4cccc2c34)CC1 [Example 63] | significant intraocular pressure reducing action |
| Cl.OCCN1CCC(N2CCc3cncc4cccc2c34)CC1 [Example 12] | significant intraocular pressure reducing action |
| Cl.OCCCN1CCC(N2CCc3cnc(O)c4cccc2c34)CC1 [Example 64] | significant intraocular pressure reducing action |
| N[C@H]1CC[C@H](N2CCc3cnc(O)c4cccc2c34)CC1 [Example 77] | significant intraocular pressure reducing action |
| CC(C)(C)C(=O)NCCCN1CCC(N2CCc3cnc(O)c4cccc2c34)CC1 [Example 76] | significant intraocular pressure reducing action |
| Cl.OCCN[C@H]1CC[C@H](N2CCc3cncc4cccc2c34)CC1 [Example 22] | significant intraocular pressure reducing action |
| Cl.OCCCN[C@H]1CC[C@H](N2CCc3cnc(O)c4cccc2c34)CC1 [Example 79] | significant intraocular pressure reducing action |
| Cl.N[C@H]1CC[C@H](N2CCc3cncc4cccc2c34)CC1 [Example 21] | significant intraocular pressure reducing action |
| Cl.N[C@H]1CC[C@@H](N2CCc3cncc4cccc2c34)CC1 [Example 31] | significant intraocular pressure reducing action |
| CCC(=O)NCCN1CCC(N2CCc3cnc(O)c4cccc2c34)CC1 [Example 68] | significant intraocular pressure reducing action |
| CCCC(=O)NCCN[C@H]1CC[C@H](N2CCc3cnc(O)c4cccc2c34)CC1.Cl [Example 84] | significant intraocular pressure reducing action |
| CC(=O)NCCCN1CCC(N2CCc3cnc(O)c4cccc2c34)CC1 [Example 72] | significant intraocular pressure reducing action |
| Cl.c1cc2c3c(cncc3c1)CCN2C1CCNCC1 [Example 11] | significant intraocular pressure reducing action |
| CC(=O)NCCN1CCC(N2CCc3cnc(O)c4cccc2c34)CC1 [Example 67] | significant intraocular pressure reducing action |
| CCC(=O)NCCN[C@H]1CC[C@H](N2CCc3cnc(O)c4cccc2c34)CC1.Cl [Example 83] | significant intraocular pressure reducing action |
| CNCCN1CCC(N2CCc3cncc4cccc2c34)CC1 [Example 57] | significant intraocular pressure reducing action |
| CCC(=O)NCCCN[C@H]1CC[C@H](N2CCc3cnc(O)c4cccc2c34)CC1.Cl [Example 88] | significant intraocular pressure reducing action |
| Cl.NCCN1CCC(N2CCc3cncc4cccc2c34)CC1 [Example 14] | significant intraocular pressure reducing action |
| CC(=O)NCCN[C@H]1CC[C@H](N2CCc3cnc(O)c4cccc2c34)CC1.Cl [Example 82] | significant intraocular pressure reducing action |
| CC(=O)NCCCN[C@H]1CC[C@H](N2CCc3cnc(O)c4cccc2c34)CC1.Cl [Example 87] | significant intraocular pressure reducing action |
| CN1CCC(N2CCc3cncc4cccc2c34)CC1 [Example 52] | significant intraocular pressure reducing action |
| CC(=O)NCCCN1CCC(N2CCc3cncc4cccc2c34)CC1 [Example 47] | significant intraocular pressure reducing action |
| Cl.OCCCN1CCC(N2CCc3cncc4cccc2c34)CC1 [Example 13] | significant intraocular pressure reducing action |
| Cl.c1cc2c3c(cncc3c1)CCN2C1CCNC1 (stereo not drawn) [Example 1] | significant intraocular pressure reducing action |
| Cl.Oc1ncc2c3c(cccc13)N(C1CCNCC1)CC2 [Example 62] | significant intraocular pressure reducing action |
| Cl.N#CCN1CCC(N2CCc3cncc4cccc2c34)CC1 [Example 18] | significant intraocular pressure reducing action |
